test system: Human Jurkat T-cells (clone N); assay: Jurkat T-cell activation (anti-TCR, CD69 upregulation); format: cell-based; conditions: not given
Protocol: The screening process took place over three days.
On the first day of the screen, cultured cells were spun down on a centrifuge (1000 rpm, 5 minutes) and resuspended at 3.0×10^5 cells/ml in RPMI+5% FBS. On the second day of the screen, cells were spun down at 1000 rpm for 5 minutes and resuspended in RPMI+5% FBS at 1.3×10^5 cells/ml. 85 μl of this cell suspension were added to the wells of U-bottom 96 well plates (Corning) 85 μl of compound or diluted RPMI+5% FBS (as a control) only was added to each well and incubated at 37° C. for 1 hour. The cells were then stimulated with anti-TCR (C305) at: 500 ng/ml by adding a 8× solution in 25 μl to the plated cells. The cells were then incubated at 37° C. for 20 hrs.
On the third day of the screen, the plates were spun at 2500 RPM for 1 minute on a Beckman GS-6R centrifuge, and the medium was then removed. 50 μl staining solution (1:100 dilution of anti-CD69-APC antibody (Becton Dickenson) in PBS+2% FBS) was then added to each well, followed by incubation of the plates 4 degrees for 20 minutes in the dark. 150 μl of wash buffer (PBS+2% FBS) was then added to each well, and the plates were spun at 3000 RPM for 1 minute. The supernatant was again removed, and the pellet was resuspended by vortexing gently. 75 μl of PBS+2% FBS +Cytofix (1:4 dilution) was then added, the plates gently vortexed and wrap in aluminum foil. Cells from the plates were read using a flow cytometer coupled to an automated liquid handling system.
Varied concentrations of compound were compared to solvent only to determine the inhibition of T-cell activation IC50 of each compound.

Q: `CCOC(=O)C(C)(C)c1ccc(Nc2ncc(F)c(Nc3ccc(OC(C)C)cc3)n2)cc1` [Compound R935150] was tested. Which IC50 did it give?
A: 20.4 µM

Q: For `C[C@H](Nc1nc(Nc2ccc3c(c2)OCCO3)ncc1F)[C@H](O)c1ccccc1` [Compound R925766], which IC50 is on record?
A: > 10 µM

Q: With `CNC(=O)COc1cccc(Nc2ncc(F)c(Nc3ccc(F)c(C(F)(F)F)c3)n2)c1` [Compound R926838] as the compound, how does the IC50 read?
A: 10.7 µM

Q: For `CC(C)c1cccc(Nc2nc(Nc3ccc4oc(CO)cc4c3)ncc2F)c1` [Compound R940286], which IC50 is on record?
A: 4.4 µM

Q: For `CNC(=O)COc1cccc(Nc2ncc(F)c(Nc3cccc(C(N)=O)c3)n2)c1` [Compound R940299], which IC50 is on record?
A: 24.9 µM

Q: Which IC50 does the source give for `CNC(=O)COc1cccc(Nc2ncc(F)c(Nc3cccc(-c4nn[nH]n4)c3)n2)c1` [Compound R926855] here?
A: > 10 µM

Q: With `CNC(=O)COc1cccc(Nc2ncc(F)c(Nc3cccc(NC)c3)n2)c1` [Compound R950267] as the compound, how does the IC50 read?
A: 1.99 µM

Q: Which IC50 does the source give for `CSc1nc2ccc(Nc3ncc(F)c(Nc4ccc5nc(SC)sc5c4)n3)cc2s1` [Compound R950202] here?
A: > 10 µM

Q: Which IC50 does the source give for `NC(=O)COc1cccc(Nc2ncc(F)c(Nc3ccc4c(c3)OCCO4)n2)c1` [Compound R926747] here?
A: 3.28 µM

Q: Which IC50 does the source give for `OCCCn1ncc2ccc(Nc3ncc(F)c(Nc4cccc(O)c4)n3)cc21` [Compound R935293] here?
A: 1.34 µM

Q: With `Fc1cnc(Nc2ccc3c(c2)OCCCO3)nc1Nc1ccc2c(c1)OCCCO2` [Compound R935162] as the compound, how does the IC50 read?
A: 3.38 µM

Q: Which IC50 does the source give for `CON=C(N)COc1ccc(Nc2ncc(F)c(Nc3cccc(O)c3)n2)cc1` [Compound R945167] here?
A: 5.07 µM

Q: How did the IC50 turn out when `O=C(c1cc2cc(Nc3ncc(F)c(Nc4ccc5oc(C(=O)N6CCOCC6)cc5c4)n3)ccc2o1)N1CCOCC1` [Compound R950172] was run?
A: 23.1 µM

Q: `CCOC(=O)COc1ccc(Nc2ncc(F)c(Nc3cccc(O)c3)n2)cc1` [Compound R926395] was tested. Which IC50 did it give?
A: 17.7 µM

Q: For `COC(=O)C(C)Oc1ccc(Nc2ccnc(Nc3ccc(OC(C)C(=O)OC)cc3)n2)cc1` (racemic) [Compound R926257], which IC50 is on record?
A: > 10 µM

Q: `Cc1noc(COc2ccc(Nc3ncc(F)c(Nc4cccc(O)c4)n3)cc2)n1` [Compound R935141] was tested. Which IC50 did it give?
A: > 10 µM

Q: For `CNC(=O)COc1cccc(Nc2ncc(F)c(Nc3cc(C(=O)OC)cc(C(F)(F)F)c3)n2)c1` [Compound R926862], which IC50 is on record?
A: 7.75 µM

Q: With `CCOC(=O)COc1ccc(Nc2nc(Cl)c(Cl)c(Nc3ccc(OCC(=O)OCC)cc3)n2)cc1` [Compound R926569] as the compound, how does the IC50 read?
A: > 10 µM

Q: For `Cc1nc(COc2cccc(Nc3ncc(F)c(Nc4ccc5oc(C(N)=O)cc5c4)n3)c2)no1` [Compound R945135], which IC50 is on record?
A: 4.37 µM

Q: How did the IC50 turn out when `CN1CCN(C(=O)CNc2cccc(Nc3ncc(F)c(Nc4cccc(NCCO)c4)n3)c2)CC1` [Compound R950240] was run?
A: 8.93 µM

Q: Which IC50 does the source give for `C=CCNC(=O)Nc1c(Nc2ccc(OCC(=O)OCC)cc2)nc(Nc2ccc(OCC(=O)OCC)cc2)nc1C(=O)OCC` [Compound R926585] here?
A: > 10 µM

Q: With `OCC(O)COc1ccc(Nc2ncc(F)c(Nc3ccc4c(c3)OCCO4)n2)cc1` (stereo not shown) [Compound R935179] as the compound, how does the IC50 read?
A: 3 µM

Q: `CCOC(=O)COc1ccc(Nc2nc(Cl)cc(NCC(=O)OC)n2)cc1` [Compound R926555] was tested. Which IC50 did it give?
A: > 10 µM

Q: How did the IC50 turn out when `Oc1cccc(Nc2nc(NC3CCN(Cc4ccccc4)CC3)ncc2F)c1` [Compound R940264] was run?
A: > 10 µM

Q: With `NC(=O)COc1ccc(Nc2ncc(F)c(Nc3ccc(OCC(N)=O)cc3)n2)cc1` [Compound R945025] as the compound, how does the IC50 read?
A: 7.03 µM

Q: For `O=C(c1cc2cc(Nc3ncc(F)c(Nc4ccc5c(c4)OCCO5)n3)ccc2o1)N1CCCNCC1` [Compound R926767], which IC50 is on record?
A: 2.67 µM

Q: How did the IC50 turn out when `CCOC(=O)COc1ccc(Nc2nc(Nc3ccc(OCC(=O)OCC)cc3)c([N+](=O)[O-])c(C(=O)OCC)n2)cc1` [Compound R926566] was run?
A: > 10 µM

Q: Which IC50 does the source give for `O=C(CNc1cccc(Nc2ncc(F)c(Nc3cccc(NCCO)c3)n2)c1)NCCO` [Compound R950231] here?
A: 8.69 µM

Q: How did the IC50 turn out when `OCCCn1ncc2cc(Nc3ncc(F)c(Nc4cccc(O)c4)n3)ccc21` [Compound R935304] was run?
A: 0.497 µM

Q: For `COc1ccc(Nc2nc(Nc3cc(C)c(O)c(Cl)c3)ncc2F)cc1CN1CCOCC1` [Compound R940316], which IC50 is on record?
A: 4.28 µM

Q: Which IC50 does the source give for `COC(=O)COc1cccc(Nc2ncc(F)c(Nc3cc(C)c(O)c(C)c3)n2)c1` [Compound R945139] here?
A: 13.9 µM

Q: Which IC50 does the source give for `Cn1ncc2cc(Nc3nc(Nc4cccc(O)c4)ncc3F)ccc21` [Compound R935204] here?
A: 3.87 µM

Q: Which IC50 does the source give for `Oc1cccc(Nc2nc(Nc3ccc(OCc4nnn[nH]4)cc3)ncc2F)c1` [Compound R920818] here?
A: > 10 µM

Q: How did the IC50 turn out when `O=C(COc1cccc(Nc2ncc(F)c(Nc3ccc4c(c3)OCCO4)n2)c1)N(CCO)CCO` [Compound R926781] was run?
A: 9.81 µM

Q: How did the IC50 turn out when `CCOC(=O)C(C)(C)Oc1cccc(Nc2ncc(F)c(Nc3ccc4cc[nH]c4c3)n2)c1` [Compound R926909] was run?
A: 4.65 µM

Q: With `CNC(=O)COc1cccc(Nc2ncc(F)c(Nc3ccc(C)c(O)c3)n2)c1` [Compound R926753] as the compound, how does the IC50 read?
A: 0.393 µM

Q: For `Cn1ncc2cc(Nc3ncc(F)c(Nc4cccc(O)c4)n3)ccc21` [Compound R935194], which IC50 is on record?
A: 0.732 µM

Q: With `CCOC(=O)CNC(=O)Oc1cccc(Nc2nc(Nc3cccc(OCC(=O)NC)c3)ncc2F)c1` [Compound R926918] as the compound, how does the IC50 read?
A: 4.69 µM

Q: Which IC50 does the source give for `CNC(=O)COc1cccc(Nc2ncc(F)c(Nc3ccc(Cl)c(C(F)(F)F)c3)n2)c1` [Compound R926881] here?
A: 11 µM

Q: With `Cn1nc(I)c2cc(Nc3ncc(F)c(Nc4ccc(I)c(O)c4I)n3)ccc21` [Compound R935221] as the compound, how does the IC50 read?
A: > 10 µM

Q: `CCOC(=O)COc1ccc(Nc2nc(Nc3ccc(OCC(=O)OCC)cc3)c(N)c(C(=O)OCC)n2)cc1` [Compound R926567] was tested. Which IC50 did it give?
A: > 10 µM

Q: For `COC(=O)COc1ccc(Nc2ncc(F)c(Nc3ccc(OCC(=O)OC)cc3)n2)cc1` [Compound R926240], which IC50 is on record?
A: > 10 µM

Q: `ON=C1CCOc2ccc(Nc3ncc(F)c(Nc4ccc5c(c4)C(=NO)CCO5)n3)cc21` [Compound R950381] was tested. Which IC50 did it give?
A: 0.805 µM

Q: For `COC(=O)Cn1ncc2cc(Nc3ncc(F)c(Nc4ccc(OC(C)C)cc4)n3)ccc21` [Compound R935222], which IC50 is on record?
A: 3.54 µM

same assay, conditions: Homo sapiens

Q: `O=[N+]([O-])c1ccc(O)c(Nc2ccnc(Nc3cc([N+](=O)[O-])ccc3O)n2)c1` [Compound R950155] was tested. Which IC50 did it give?
A: > 10 µM

Q: `CCNC(=O)Oc1cccc(Nc2ncc(F)c(Nc3cccc(O)c3)n2)c1` [Compound R926928] was tested. Which IC50 did it give?
A: > 10 µM

same assay, conditions: Homo sapiens, Jurkat

Q: With `O=C1COc2cc(Nc3ncc(F)c(Nc4cccc(O)c4)n3)ccc2N1` [Compound R908699] as the compound, how does the IC50 read?
A: 1.03 µM

Q: For `Fc1cnc(Nc2ccc3[nH]ccc3c2)nc1Nc1ccc2c(c1)OCCO2` [Compound R926748], which IC50 is on record?
A: 2.77 µM

Q: With `Fc1cnc(Nc2cccc(OC(F)(F)F)c2)nc1Nc1cccc(OC(F)(F)F)c1` [Compound R926038] as the compound, how does the IC50 read?
A: > 10 µM

Q: `CC1(Cl)CC(Nc2ncc(F)c(Nc3ccc4c(c3)-n3ccnc3CO4)n2)=CC=C1O` (stereo not shown) [Compound R935263] was tested. Which IC50 did it give?
A: 2.02 µM

Q: Which IC50 does the source give for `COc1ccc(Nc2ncc(F)c(Nc3ccc4c(c3)OCCO4)n2)cc1OC` [Compound R926212] here?
A: 0.56 µM

Q: With `COC(=O)c1ccc(Nc2ncc(F)c(Nc3ccc(C(=O)OC)c(OC)c3)n2)cc1OC` [Compound R945065] as the compound, how does the IC50 read?
A: 14.4 µM

Q: For `Cc1cc(Nc2ncc(F)c(Nc3cc(C)c(O)cc3C)n2)c(C)cc1O` [Compound R926623], which IC50 is on record?
A: 10 µM

Q: Which IC50 does the source give for `Fc1cc(F)cc(Nc2ncc(F)c(Nc3ccc4c(c3)OCCO4)n2)c1` [Compound R926898] here?
A: > 10 µM

Q: With `CC(Nc1nc(Nc2cccc(O)c2)ncc1Br)c1ccc(F)cc1` (racemic) [Compound R935023] as the compound, how does the IC50 read?
A: > 10 µM

Q: For `Oc1cccc(Nc2nc(Cl)c(Cl)c(Nc3cccc(O)c3)n2)c1` [Compound R926591], which IC50 is on record?
A: > 10 µM

Q: For `C=CCNc1ncc(F)c(Nc2ccc3c(c2)OCCO3)n1` [Compound R925823], which IC50 is on record?
A: 9.33 µM

Q: Which IC50 does the source give for `CC(C)(CO)c1ccc(Nc2nc(Nc3ccc(OCCO)cc3)ncc2F)cc1` [Compound R935158] here?
A: 2.47 µM

Q: For `OCc1cc2cc(Nc3ncc(F)c(Nc4cccc(O)c4)n3)ccc2o1` [Compound R926707], which IC50 is on record?
A: 2.68 µM

Q: Which IC50 does the source give for `O=[N+]([O-])c1cnc(Nc2ccc3c(c2)OC(F)(F)O3)nc1Nc1ccc2c(c1)OC(F)(F)O2` [Compound R940100] here?
A: > 10 µM

Q: With `Fc1ccc(Nc2ncc(F)c(Nc3ccc(F)cc3)n2)cc1` [Compound R926224] as the compound, how does the IC50 read?
A: > 10 µM

Q: How did the IC50 turn out when `OCCOc1cccc(Nc2ncc(F)c(Nc3ccc4oc(CO)cc4c3)n2)c1` [Compound R935178] was run?
A: 3.04 µM

Q: For `COC(=O)c1cc(Nc2nc(Nc3cccc(O)c3)ncc2Br)cn1C` [Compound R935025], which IC50 is on record?
A: 7.95 µM

Q: `Fc1cnc(Nc2ccc(OCc3ccccc3)c(C(F)(F)F)c2)nc1Nc1ccc(OCc2ccccc2)c(C(F)(F)F)c1` [Compound R950090] was tested. Which IC50 did it give?
A: > 10 µM

Q: For `Cc1ccc(Nc2ccnc(Nc3ccc(C)c(N)c3)n2)cc1N` [Compound R950130], which IC50 is on record?
A: > 10 µM

Q: How did the IC50 turn out when `c1ccc(-c2cc(Nc3ccc4c(c3)OCCO4)nc(Nc3ccc4c(c3)OCCO4)n2)cc1` [Compound R925811] was run?
A: > 10 µM

Q: With `CC(C)Oc1ccc(Nc2nc(Nc3ccc(OCCO)cc3)ncc2F)cc1` [Compound R935160] as the compound, how does the IC50 read?
A: 2.37 µM

Q: Which IC50 does the source give for `Clc1cccc(-c2cnc(Nc3ccc4c(c3)OCCO4)nc2Nc2ccc3c(c2)OCCO3)c1` [Compound R925787] here?
A: > 10 µM

Q: Which IC50 does the source give for `CC(C)(C)c1ccc(Nc2nc(Nc3ccc4oc(C(=O)O)cc4c3)ncc2F)cc1` [Compound R926481] here?
A: > 10 µM

Q: `CC(C)Oc1ccc(Nc2ncc(F)c(Nc3cccc(N)c3)n2)cc1` [Compound R950165] was tested. Which IC50 did it give?
A: 7.59 µM

— patent US8158621B2, “Methods of treating or preventing autoimmune diseases with 2,4-pyrimidinediamine compounds” (Rigel Pharmaceuticals, Inc., priority 2002, dated 2012)
